US9040529B2 (Vichem Chemie Kutató Kft., priority 2009, dated 2015)
Where a name gives a salt, the structure may show the parent alone.

target: T1, human CDK9/CyclinT kinase complex (Homo sapiens, UniProt P50750); assay: In vitro CDK9/CyclinT assay (IMAP fluorescence polarization kinase assay); format: biochemical; conditions: not given
T1 construct: purchased Proqinase 0371-0345-1
Description: In Vitro CDK9/CyclinT Assay
The activity of the compounds described in the present invention can be determined by the following kinase assay, which measures the phosphorylation of a fluorescently-labeled peptide by human CDK9/CyclinT kinase complex by fluorescent polarization using a commercially available IMAP Screening Express Assay Kit (Molecular devices).
CDK9 kinase assays were performed in low protein binding 384-well plates (Corning 3676). Test compounds were diluted in 100% DMSO to 5 mM stock concentration, then further dilutions were made in H2O or 100% DMSO to desirable concentrations.
Each reaction consisted of 5 nM enzyme: CDK9/CyclinT (Proqinase cat#0371-0345-1), 400 nM TAMRA-Rbtide (synthetic 15-mer peptide derived from human retinoblastoma tumor suppressor protein labelled with TAMRA dye, Genecust Europe), 12 μM ATP (=Kmapp, Sigma-Aldrich) and kinase buffer: 20 mM MOPS pH 7 (Sigma-Aldrich), 1 mM DTT (Sigma-Aldrich), 10 mM MgCl2 (Sigma-Aldrich), 0.01% Tween 20 (Sigma-Aldrich).
For each reaction, 4 or 6 μl containing TAMRA-Rbtide, ATP and kianse buffer were combined with 2 μl diluted compound in H2O or 0.028 μl compound in 100% DMSO. The kinase reaction was started by the addition of 2 μl diluted enzyme. The reaction was allowed to run for 1 hours at room temperature. The reaction was stopped by adding 15 μl IMAP beads (1:400 beads in progressive (100% buffer A) 1× buffer). After an additional 1 hours, fluorescent polarization (Ex: 550-10 nm, Em: 590-10 nm, Dich: 561 nm) was measured using an Analyst GT (Molecular devices).

T1 sequence (P50750 whole entry): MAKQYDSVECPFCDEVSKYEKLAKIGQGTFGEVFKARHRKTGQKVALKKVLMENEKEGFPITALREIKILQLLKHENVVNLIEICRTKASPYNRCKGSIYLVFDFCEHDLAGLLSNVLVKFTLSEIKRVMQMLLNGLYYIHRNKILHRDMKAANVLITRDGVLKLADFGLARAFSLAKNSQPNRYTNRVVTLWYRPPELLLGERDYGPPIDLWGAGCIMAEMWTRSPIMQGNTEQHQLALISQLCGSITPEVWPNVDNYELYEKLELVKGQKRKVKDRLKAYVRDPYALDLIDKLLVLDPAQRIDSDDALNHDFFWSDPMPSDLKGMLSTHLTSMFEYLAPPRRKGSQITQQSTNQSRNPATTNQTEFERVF
T1 sequence (O60563 whole entry partner): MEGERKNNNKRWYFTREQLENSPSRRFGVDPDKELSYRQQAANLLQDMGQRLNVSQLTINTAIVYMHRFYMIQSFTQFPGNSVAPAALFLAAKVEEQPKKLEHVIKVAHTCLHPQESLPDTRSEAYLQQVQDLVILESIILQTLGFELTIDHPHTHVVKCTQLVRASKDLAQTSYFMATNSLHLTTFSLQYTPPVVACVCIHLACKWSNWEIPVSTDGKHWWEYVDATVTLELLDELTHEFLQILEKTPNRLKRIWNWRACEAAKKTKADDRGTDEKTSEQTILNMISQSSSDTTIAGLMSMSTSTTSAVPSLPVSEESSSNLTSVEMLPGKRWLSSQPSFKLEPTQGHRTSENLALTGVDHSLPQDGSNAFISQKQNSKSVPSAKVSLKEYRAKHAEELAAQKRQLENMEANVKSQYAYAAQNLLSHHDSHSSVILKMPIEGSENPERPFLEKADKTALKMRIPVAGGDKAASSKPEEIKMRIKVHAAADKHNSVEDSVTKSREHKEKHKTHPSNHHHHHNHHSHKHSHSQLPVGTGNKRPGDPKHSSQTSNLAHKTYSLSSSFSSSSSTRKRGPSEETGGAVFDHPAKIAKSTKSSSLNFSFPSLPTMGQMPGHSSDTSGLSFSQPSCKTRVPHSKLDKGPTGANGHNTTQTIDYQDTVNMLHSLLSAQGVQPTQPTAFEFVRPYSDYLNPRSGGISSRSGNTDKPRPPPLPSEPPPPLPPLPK

Structure (SMILES) | CDK9 inhibitory effect
COc1ccccc1-c1cc(Nc2cccc(Cn3cnc4ccccc43)c2)ncn1 [Example 64, (3-Benzoimidazol-1-ylmethyl-phenyl)-[6-(2-methoxy-phenyl)-pyrimidin-4-yl]-amine] | nanomolar or low nanomolar range
CCOc1ccccc1-c1cc(Nc2ccc(CNS(C)(=O)=O)cc2)ncn1 [Example 37, N-{4-[6-(2-Ethoxy-phenyl)-pyrimidin-4-ylamino]-benzyl}-methanesulfonamide] | nanomolar or low nanomolar range
COc1ccccc1-c1cc(Nc2cccc(CN)c2)ncn1 [Example 69, (3-Aminomethyl-phenyl)-[6-(2-methoxy-phenyl)-pyrimidin-4-yl]-amine hydrochloride] | nanomolar or low nanomolar range

same assay, conditions: 5 nM CDK9/CyclinT, 400 nM TAMRA-Rbtide, 12 μM ATP, 1 hour at room temperature; read-out: CDK9 inhibitory range

Structure (SMILES) | IC50 [nM]
COc1ccccc1-c1cc(Nc2cccc(CNS(=O)(=O)c3ccc(F)cc3)c2)ncn1 [Example 72, 4-Fluoro-N-{3-[6-(2-methoxy-phenyl)-pyrimidin-4-ylamino]-benzyl}-benzenesulfonamide] | < 1000
COc1ccc(F)cc1-c1cc(Nc2ccc(CNS(C)(=O)=O)cc2)ncn1 [Example 38, N-{4-[6-(5-Fluoro-2-methoxy-phenyl)-pyrimidin-4-ylamino]-benzyl}-methanesulfonamide] | < 1000
COc1cccc(-c2cc(Nc3cccc(CNS(C)(=O)=O)c3)ncn2)c1OC [Example 23, N-{3-[6-(2,3-Dimethoxy-phenyl)-pyrimidin-4-ylamino]-benzyl}-methanesulfonamide] | < 1000
CS(=O)(=O)NCc1cccc(Nc2cc(-c3cn[nH]c3)ncn2)c1 [Example 32, N-{3-[6-(1H-Pyrazol-4-yl)-pyrimidin-4-ylamino]-benzyl}-methanesulfonamide] | < 1000
CS(=O)(=O)NCc1ccc(Nc2cc(-c3ccccc3OCc3ccc(F)cc3)ncn2)cc1 [Example 36, N-(4-{6-[2-(4-Fluoro-benzyloxy)-phenyl]-pyrimidin-4-ylamino}-benzyl)-methanesulfonamide] | < 1000
COc1ccccc1-c1cc(Nc2cccc(Cn3cnc4ccccc43)c2)ncn1 [Example 64, (3-Benzoimidazol-1-ylmethyl-phenyl)-[6-(2-methoxy-phenyl)-pyrimidin-4-yl]-amine] | < 100
Oc1ccc(-c2cc(Nc3ccc(Cn4cnc5ccccc54)cc3)ncn2)cc1 [Example 89, 4-[6-(4-Benzoimidazol-1-ylmethyl-phenylamino)-pyrimidin-4-yl]-phenol] | < 1000
CC(C)Oc1cc(F)ccc1-c1cc(Nc2cccc(CNS(C)(=O)=O)c2)ncn1 [Example 14, N-{3-[6-(4-Fluoro-2-isopropoxy-phenyl)-pyrimidin-4-ylamino]-benzyl}-methanesulfonamide] | < 1000
CS(=O)(=O)NCc1ccc(Nc2cc(-c3cccnc3)ncn2)cc1 [Example 52, N-[4-(6-Pyridin-3-yl-pyrimidin-4-ylamino)-benzyl]-methanesulfonamide] | < 10000
COc1cccc(F)c1-c1cc(Nc2cccc(Cn3cnc4ccccc43)c2)ncn1 [Example 79, (3-Benzoimidazol-1-ylmethyl-phenyl)-[6-(2-fluoro-6-methoxy-phenyl)-pyrimidin-4-yl]-amine] | < 100
Clc1cc(Nc2cccc(Cn3ccc4ccccc43)c2)ncn1 [Example 90, (6-Chloro-pyrimidin-4-yl)-(3-indol-1-ylmethyl-phenyl)-amine] | > 10000
CCOc1ccccc1-c1cc(Nc2ccc(CNS(C)(=O)=O)cc2)ncn1 [Example 37, N-{4-[6-(2-Ethoxy-phenyl)-pyrimidin-4-ylamino]-benzyl}-methanesulfonamide] | < 100
COc1ccccc1-c1cc(Nc2cccc(CN)c2)ncn1 [Example 69, (3-Aminomethyl-phenyl)-[6-(2-methoxy-phenyl)-pyrimidin-4-yl]-amine hydrochloride] | < 100
COc1cccc(-c2cc(Nc3ccc(CNS(C)(=O)=O)cc3)ncn2)c1OC [Example 55, N-{4-[6-(2,3-Dimethoxy-phenyl)-pyrimidin-4-ylamino]-benzyl}-methanesulfonamide] | < 1000
COc1cccc(-c2cc(Nc3ccc(CNS(C)(=O)=O)cc3)ncn2)c1 [Example 47, N-{4-[6-(3-Methoxy-phenyl)-pyrimidin-4-ylamino]-benzyl}-methanesulfonamide] | < 10000
CS(=O)(=O)NCc1cccc(Nc2cc(-c3ccccc3COc3ccc(OC(F)(F)F)cc3)ncn2)c1 [Example 30, N-(3-{6-[2-(4-Trifluoromethoxy-phenoxymethyl)-phenyl]-pyrimidin-4-ylamino}-benzyl)-methanesulfonamide] | > 10000
CS(=O)(=O)NCc1cccc(Nc2cc(-c3ccccc3Oc3ccccc3)ncn2)c1 [Example 4, N-{3-[6-(2-Phenoxy-phenyl)-pyrimidin-4-ylamino]-benzyl}-methanesulfonamide] | < 1000
CC(C)Oc1cc(F)ccc1-c1cc(Nc2ccc(Cn3cnc4ccccc43)cc2)ncn1 [Example 88, (4-Benzoimidazol-1-ylmethyl-phenyl)-[6-(4-fluoro-2-isopropoxy-phenyl)-pyrimidin-4-yl]-amine] | < 1000
CSc1ccccc1-c1cc(Nc2cccc(CNS(C)(=O)=O)c2)ncn1 [Example 28, N-{3-[6-(2-Methylsulfanyl-phenyl)-pyrimidin-4-ylamino]-benzyl}-methanesulfonamide] | < 1000
Oc1ccc(-c2cc(Nc3cccc(CNc4nc5ccccc5[nH]4)c3)ncn2)cc1 [Example 78, 4-(6-{3-[(1H-Benzoimidazol-2-ylamino)-methyl]-phenylamino}-pyrimidin-4-yl)-phenol] | < 1000
COc1ccccc1-c1cc(Nc2cccc(CNS(=O)(=O)Cc3ccccc3)c2)ncn1 [Example 74, N-{3-[6-(2-Methoxy-phenyl)-pyrimidin-4-ylamino]-benzyl}-C-phenyl-methanesulfonamide] | < 1000
C=C(c1ccccc1)c1cc(Nc2cccc(CNS(C)(=O)=O)c2)ncn1 [Example 3] | < 10000
